# Laboratory results from ChEMBL document CHEMBL1140651, “N-(6,7-dichloro-2,3-dioxo-1,2,3,4-tetrahydroquinoxalin-5-yl)-N-alkylsulfonamides as peripherally restricted N-methyl-D-aspartate receptor antagonists for the treatment of pain” (Bioorg Med Chem Lett, 2007).
# “And” between values parts separate entries of the source, which are not always exact repeats. Equal entries are not always repeated.
# Columns and labels:
# Liver microsomes [1] = assay: Metabolic stability in human liver microsome; type: ADME
# [2] = AUC in Sprague-Dawley rat at 5 mg/kg, po; type: ADME, organism-based; parameters: dose 5 mg/kg, route oral; conditions: plasma
# Rattus norvegicus [3] = assay: Anticonvulsant activity in Swiss Webster mouse at 100 mg/kg by MES assay; type: functional
# Liver microsomes [4] = assay: Metabolic stability in rat liver microsome; type: ADME
# [5] = (§1) Bioavailability in Sprague-Dawley rat at 5 mg/kg, po; type: ADME, organism-based; conditions: Sprague-Dawley, in vivo
# [6] = biological target: Glutamate receptor ionotropic, NMDA 1 (Homo sapiens, UniProt Q05586); assay: Antagonist activity at human NMDA NR1 receptor; type: functional
# [7] = Solubility of the compound; type: physicochemical
# [8] = Permeability from apical to basolateral side of the Caco-2 cell membrane; type: ADME, cell-based; conditions: human, read-out: permeability
# Caco-2 = assay: Ratio of permeability from basolateral to apical over apical to basolateral side of the Caco-2 cell membrane; type: ADME, cell-based; conditions: human
# Rattus norvegicus [9] = assay: Analgesic activity in rat formalin pain model assessed as reduction in pain response at 50 mg/kg, po; type: functional; parameters: scale not given: the % may be the effect or the level left
# Rattus norvegicus [10] = assay: Analgesic activity in rat formalin pain model assessed as reduction in pain response at 50 mg/kg, ip; type: functional; parameters: scale not given: the % may be the effect or the level left; conditions: route intraperitoneal
# Rattus norvegicus [11] = assay: […] in […] at 300 mg/kg, ip by MES assay; type: functional; conditions: route intraperitoneal
# Rattus norvegicus [12] = assay: as §1; type: ADME, organism-based; conditions: in vivo
Activity (Liver microsomes [1]),AUC [2] [ng·h/mL],Activity (Liver microsomes [4]),bioavailability [5] [%],IC50 [6],solubility [7] [µg/mL],Papp A→B [8] [×10⁻⁶ cm/s],Ratio (Caco-2),F (Rattus norvegicus [12]),SMILES,Activity (Rattus norvegicus [3]) [%],Activity (Rattus norvegicus [9]) [%],Activity (Rattus norvegicus [10]) [%],Activity (Rattus norvegicus [11]) [%]
Active,1500,Active,7,2 nM,–,–,–,–,Cc1c(Cl)cc2[nH]c(=O)c(=O)[nH]c2c1N(CC(=O)O)S(C)(=O)=O,87.5,–,–,–
Active,2620,Active,100,74 nM,72,0.01,–,–,COCCN(c1c(C)c(Cl)cc2[nH]c(=O)c(=O)[nH]c12)S(C)(=O)=O,–,–,–,–
Active,840,Active,90,166 nM,88,0.97,12.4,–,CCOCCOCCN(c1c(Cl)c(Cl)cc2[nH]c(=O)c(=O)[nH]c12)S(C)(=O)=O,–,–,–,–
Active,155,Active,5,1 nM,72,–,–,–,Cc1cc2[nH]c(=O)c(=O)[nH]c2c(N(CC(=O)O)S(C)(=O)=O)c1Cl,62.5,–,–,–
Active,3920,Active,32,109 nM and 20 nM and 27 nM,–,–,–,–,CCS(=O)(=O)N(CCC(F)(F)F)c1c(Cl)c(Cl)cc2[nH]c(=O)c(=O)[nH]c12,–,30,60,0
Active,–,Active,–,22 nM and 11 nM and 18 nM,56,0.41,15,–,CS(=O)(=O)N(CCC(F)(F)F)c1c(Cl)c(Cl)cc2[nH]c(=O)c(=O)[nH]c12,–,–,40,0
Active,1190,Active,57,77 nM,72,0.14,30.6,–,COCCN(c1c(Cl)c(C)cc2[nH]c(=O)c(=O)[nH]c12)S(C)(=O)=O,–,–,–,–
Active,393,Active,–,2 nM,76,–,–,–,CS(=O)(=O)N(CC(=O)O)c1c(Cl)c(Cl)cc2[nH]c(=O)c(=O)[nH]c12,100,–,–,–
Active,152,Active,8,12 nM,40,3.43,4.67,–,COc1cccc(CN(c2c(Cl)c(Cl)cc3[nH]c(=O)c(=O)[nH]c23)S(C)(=O)=O)c1,–,–,–,–
Active,183,Active,1,58 nM,72,–,–,–,CCc1c(Cl)cc2[nH]c(=O)c(=O)[nH]c2c1N(CCO)S(C)(=O)=O,0,–,–,–
Active,1270,Active,33,19 nM,82,0.44,28.4,–,CCOCCCN(c1c(Cl)c(Cl)cc2[nH]c(=O)c(=O)[nH]c12)S(C)(=O)=O,–,–,–,–
Active,605,Active,4,14 nM,70,–,–,–,Cc1c(Cl)cc2[nH]c(=O)c(=O)[nH]c2c1N(CCO)S(C)(=O)=O,0,–,–,–
Active,922,Active,31,59 nM,16,1.52,7.55,–,CS(=O)(=O)N(CC1CCCO1)c1c(Cl)c(Cl)cc2[nH]c(=O)c(=O)[nH]c12 (stereo unspecified),–,–,–,–
Active,2260,Active,78,209 nM,79,10,1.38,–,CCOCCN(c1c(Cl)c(Cl)cc2[nH]c(=O)c(=O)[nH]c12)S(C)(=O)=O,–,–,–,–
Active,680,Active,1,40 nM,76,–,–,–,CC(O)CN(c1c(Cl)c(Cl)cc2[nH]c(=O)c(=O)[nH]c12)S(C)(=O)=O (stereo unspecified),–,–,–,–
Active,1490,Active,53,39 nM,25,< 0.01,–,–,CS(=O)(=O)N(CC1CCCCO1)c1c(Cl)c(Cl)cc2[nH]c(=O)c(=O)[nH]c12 (stereo unspecified),–,–,–,–
Active,791,Active,9,4 nM,70,–,–,–,Cc1cc2[nH]c(=O)c(=O)[nH]c2c(N(CCO)S(C)(=O)=O)c1Cl,0,–,–,–
Active,632,Active,47,49 nM,78,0.01,–,–,CCc1cc2[nH]c(=O)c(=O)[nH]c2c(N(CCCOC)S(C)(=O)=O)c1Cl,–,–,–,–
Active,–,Active,–,728 nM,72,0.01,0.1,–,COCCCN(c1cc(Cl)cc2[nH]c(=O)c(=O)[nH]c12)S(C)(=O)=O,–,–,–,–
Active,136,Active,1,41 nM,76,–,–,–,CS(=O)(=O)N(CCCO)c1c(Cl)c(Cl)cc2[nH]c(=O)c(=O)[nH]c12,–,–,–,–
Active,1080,Active,33,38 nM,76,0.01,–,–,COCCN(c1c(Cl)c(Cl)cc2[nH]c(=O)c(=O)[nH]c12)S(C)(=O)=O,–,–,–,–
Active,–,Active,41,–,79,2.06,6.05,43% and 39%,COCCCN(c1c(Cl)c(Cl)cc2[nH]c(=O)c(=O)[nH]c12)S(C)(=O)=O,–,–,–,20
Active,589,Active,10,45 nM,23,1.75,4.07,–,CS(=O)(=O)N(Cc1cccc(F)c1)c1c(Cl)c(Cl)cc2[nH]c(=O)c(=O)[nH]c12,–,–,–,–
